pIC50: −log10 of the molar value.
Key:
[1] = target: Recombinant human Cbl-b (aa 36-427) (Homo sapiens (Human), UniProt Q13191); test: Cbl-b Biochemical Assay (TR-FRET); conditions: read-out: TR-FRET hCbl-b IC50
How it was run: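 IC50 from 4-parameter fit of % inhibition (DMSO max, reference-inhibitor min), duplicate ten-point series. Compound preincubated with 6 nM Cbl-b, then Src-Zap70 (1-2.5 nM)/0.5 mM ATP reaction 60 min RT; EDTA quench with labelled UBE2D2-Ub and streptavidin-terbium, 60 min, HTRF at 520 nm.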

[2] = target: Recombinant human c-Cbl (aa 47-435) (Homo sapiens (Human), UniProt P22681); test: c-Cbl Biochemical Assay (TR-FRET)
Sequence of Recombinant human c-Cbl (aa 47-435) (P22681 47-435): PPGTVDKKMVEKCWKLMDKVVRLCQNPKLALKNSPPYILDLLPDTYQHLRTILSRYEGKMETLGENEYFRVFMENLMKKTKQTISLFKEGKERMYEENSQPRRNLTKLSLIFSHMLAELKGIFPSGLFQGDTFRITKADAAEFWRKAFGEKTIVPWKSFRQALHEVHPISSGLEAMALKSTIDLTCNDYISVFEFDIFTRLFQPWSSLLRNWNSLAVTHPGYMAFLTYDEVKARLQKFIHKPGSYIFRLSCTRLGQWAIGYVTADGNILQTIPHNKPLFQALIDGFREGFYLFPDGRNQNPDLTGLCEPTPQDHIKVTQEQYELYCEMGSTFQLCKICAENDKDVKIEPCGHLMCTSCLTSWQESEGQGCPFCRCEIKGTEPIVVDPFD
How it was run: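 TR-FRET binding of UBE2D2-Ub-Bodipy (100 nM) to biotinylated c-Cbl (aa 47-435, 6 nM) via Streptavidin-Tb, measured after c-Cbl activation by Src-Zap70 with 0.5 mM ATP (60-90 min RT, 30 min compound preincubation). Ten-point half-log dilutions, 1% DMSO; IC50 by 4-parameter fit of normalized inhibition.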

Sequence of Recombinant human Cbl-b (aa 36-427) (Q13191 36-427): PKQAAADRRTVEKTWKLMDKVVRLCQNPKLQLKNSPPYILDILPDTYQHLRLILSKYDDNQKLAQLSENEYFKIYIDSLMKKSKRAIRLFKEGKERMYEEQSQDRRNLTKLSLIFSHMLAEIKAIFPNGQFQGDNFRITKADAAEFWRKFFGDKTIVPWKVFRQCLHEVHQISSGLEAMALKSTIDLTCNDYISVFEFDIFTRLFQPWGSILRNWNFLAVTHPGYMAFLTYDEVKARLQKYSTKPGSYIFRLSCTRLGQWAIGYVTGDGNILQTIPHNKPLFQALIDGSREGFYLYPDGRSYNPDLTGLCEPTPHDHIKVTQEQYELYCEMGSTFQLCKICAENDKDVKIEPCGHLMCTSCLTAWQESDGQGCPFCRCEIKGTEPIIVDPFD

Compound | pIC50 [1] | pIC50 [2]
CCOc1cc(-c2ccc(F)cc2-c2nncn2C)cc(N2Cc3c(OC)cc(CNCC4(O)CCC4)cc3C2=O)n1 [AIJ-2, 2-{6-Ethoxy-4-[4-fluoro-2-(4-methyl-1,2,4-triazol-3-yl)phenyl]pyridin-2-yl}-6-({[(1-hydroxycyclobutyl)methyl]amino}methyl)-4-methoxy-3H-isoindol-1-one] | ≥ 6.70 | ≥ 6.70
Cn1cnnc1-c1cc(C#N)ccc1-c1cc(C2CC2)nc(N2Cc3ccc(CNCC4CC(F)(F)C4)cc3C2=O)c1 [AKC-2, 4-{2-Cyclopropyl-6-[6-({[(3,3-difluorocyclobutyl)methyl]amino}methyl)-1-oxo-3H-isoindol-2-yl]pyridin-4-yl}-3-(4-methyl-1,2,4-triazol-3-yl)benzonitrile] | ≥ 6.70 | ≥ 6.70
Cn1cnnc1-c1cc(C#N)ccc1-c1cc(N2Cc3c(F)cc(CO)cc3C2=O)nc(C(F)(F)F)c1 [ALM-3, 4-{2-[4-Fluoro-6-(hydroxymethyl)-1-oxo-3H-isoindol-2-yl]-6-(trifluoromethyl)pyridin-4-yl}-3-(4-methyl-1,2,4-triazol-3-yl)benzonitrile] | ≥ 6.70 | 6.00 to 6.70
C[C@@H]1[C@@H](O)CCN1Cc1cc(F)c2c(c1)C(=O)N(c1cc(-c3ccc(C#N)cc3-c3nncn3C)cc(C3CC3)n1)C2 [ANC-2, 4-[2-Cyclopropyl-6-(4-fluoro-6-{[(2R,3S)-3-hydroxy-2-methylpyrrolidin-1-yl]methyl}-1-oxo-3H-isoindol-2-yl)pyridin-4-yl]-3-(4-methyl-1,2,4-triazol-3-yl)benzonitrile] | ≥ 6.70 | ≥ 6.70
C[C@@H](c1ccc2c(c1)C(=O)N(c1cc(-c3ccc(C#N)cc3-c3nncn3C)cc(C3CC3)n1)C2)N1CC2(COC2)C1 [AOD-2, 4-(2-Cyclopropyl-6-{6-[(1S)-1-{2-oxa-6-azaspiro[3.3]heptan-6-yl}ethyl]-1-oxo-3H-isoindol-2-yl}pyridin-4-yl)-3-(4-methyl-1,2,4-triazol-3-yl)benzonitrile] | ≥ 6.70 | ≥ 6.70
CN(Cc1cc2c(c(C(F)(F)F)c1)CN(c1cc(-c3c(-c4nncn4C)cnn3C)cc(C3CC3)n1)C2=O)CC1(O)CCC1 [AJW-1, 2-{6-Cyclopropyl-4-[2-methyl-4-(4-methyl-1,2,4-triazol-3-yl)pyrazol-3-yl]pyridin-2-yl}-6-({[(1-hydroxycyclobutyl)methyl](methyl)amino}methyl)-4-(trifluoromethyl)-3H-isoindol-1-one] | ≥ 6.70 | ≥ 6.70
CNCCNCc1ccc2c(c1)C(=O)N(c1cc(-c3ccc(C#N)cc3-c3nncn3C)cc(C3CC3)n1)C2 [ALZ-3, 4-{2-Cyclopropyl-6-[6-({[2-(methylamino)ethyl]amino}methyl)-1-oxo-3H-isoindol-2-yl]pyridin-4-yl}-3-(4-methyl-1,2,4-triazol-3-yl)benzonitrile] | ≥ 6.70 | ≥ 6.70
COCC(NCc1cc(F)c2c(c1)C(=O)N(c1cc(-c3ccc(C#N)cc3-c3nncn3C)cc(C3CC3)n1)C2)C(F)(F)F (centres unmarked) [ANW-3, 4-[2-Cyclopropyl-6-(4-fluoro-1-oxo-6-{[(1,1,1-trifluoro-3-methoxypropan-2-yl)amino]methyl}-3H-isoindol-2-yl)pyridin-4-yl]-3-(4-methyl-1,2,4-triazol-3-yl)benzonitrile] | ≥ 6.70 | ≥ 6.70
CO[C@H](C)CNCc1cc(F)c2c(c1)C(=O)N(c1cc(-c3ccc(C#N)cc3-c3nncn3C)cc(C3CC3)n1)C2 [AKV-1, 4-{2-Cyclopropyl-6-[4-fluoro-6-({[(2R)-2-methoxypropyl]amino}methyl)-1-oxo-3H-isoindol-2-yl]pyridin-4-yl}-3-(4-methyl-1,2,4-triazol-3-yl)benzonitrile] | ≥ 6.70 | ≥ 6.70
Cn1cnnc1-c1cc(F)ccc1-c1cc(C2CC2)nc(N2Cc3c(F)cc(CNCC4(O)CCC4)cc3C2=O)c1 [AMJ-1, 2-{6-Cyclopropyl-4-[4-fluoro-2-(4-methyl-1,2,4-triazol-3-yl)phenyl]pyridin-2-yl}-4-fluoro-6-({[(1-hydroxycyclobutyl)methyl]amino}methyl)-3H-isoindol-1-one] | ≥ 6.70 | ≥ 6.70
Cn1cnnc1-c1cc(C#N)ccc1-c1cc(C2CC2)nc(N2Cc3c(cc(CNCC4(O)CCC4)c(F)c3F)C2=O)c1 [AOX-1, 4-{2-Cyclopropyl-6-[4,5-difluoro-6-({[(1-hydroxycyclobutyl)methyl]amino}methyl)-1-oxo-3H-isoindol-2-yl]pyridin-4-yl}-3-(4-methyl-1,2,4-triazol-3-yl)benzonitrile] | ≥ 6.70 | ≥ 6.70
CN(Cc1ccc2c(c1)C(=O)N(c1cc(-c3ccc(C#N)cc3-c3nncn3C)cc(C3CC3)n1)C2)C1CCC1 [AOA-1] | ≥ 6.70 | ≥ 6.70
Cn1cnnc1-c1cc(C#N)ccc1-c1cc(C2CC2)nc(N2Cc3ccc(CNCC45CC(C4)C5)cc3C2=O)c1 [AKD-2, 4-(2-{6-[({Bicyclo[1.1.1]pentan-1-ylmethyl}amino)methyl]-1-oxo-3H-isoindol-2-yl}-6-cyclopropylpyridin-4-yl)-3-(4-methyl-1,2,4-triazol-3-yl)benzonitrile] | ≥ 6.70 | ≥ 6.70
CCOc1cc(-c2ccc(F)cc2-c2nncn2C)cc(N2Cc3c(cc(COCCO)cc3C(F)(F)F)C2=O)n1 [AHQ-4, 2-(6-Ethoxy-4-(4-fluoro-2-(4-methyl-4H-1,2,4-triazol-3-yl)phenyl)pyridin-2-yl)-6-((2-hydroxyethoxy)methyl)-4-(trifluoromethyl)isoindolin-1-one] | ≥ 6.70 | ≥ 6.70
COCCNCc1ccc2c(c1)C(=O)N(c1cccc(-c3ccc(C#N)cc3-c3nncn3C)c1)C2 [AJF-1, 3′-(6-(((2-Methoxyethyl)amino)methyl)-1-oxoisoindolin-2-yl)-2-(4-methyl-4H-1,2,4-triazol-3-yl)-[1,1′-biphenyl]-4-carbonitrile] | ≥ 6.70 | ≥ 6.70
CN(Cc1ccc2c(c1)C(=O)N(c1cc(-c3ccc(C#N)cc3-c3nncn3C)cc(C3CC3)n1)C2)CC1COC1 [ANX-2, 4-[2-Cyclopropyl-6-(6-{[methyl(oxetan-3-ylmethyl)amino]methyl}-1-oxo-3H-isoindol-2-yl)pyridin-4-yl]-3-(4-methyl-1,2,4-triazol-3-yl)benzonitrile] | ≥ 6.70 | ≥ 6.70
C[C@@H](NC1COC1)c1ccc2c(c1)C(=O)N(c1cc(-c3ccc(C#N)cc3-c3nncn3C)cc(C3CC3)n1)C2 [AOC-2] | ≥ 6.70 | ≥ 6.70
Cn1cnnc1-c1cc(C#N)ccc1-c1cc(C2CC2)nc(N2Cc3ccc(CNCC4(O)CCCC4)cc3C2=O)c1 [AIF-1, 4-{2-Cyclopropyl-6-[6-({[(1-hydroxycyclopentyl)methyl]amino}methyl)-1-oxo-3H-isoindol-2-yl]pyridin-4-yl}-3-(4-methyl-1,2,4-triazol-3-yl)benzonitrile] | ≥ 6.70 | ≥ 6.70
Cn1cnnc1-c1cnn(C)c1-c1cc(C2CC2)nc(N2Cc3c(cc(CO)cc3C(F)(F)F)C2=O)c1 [AKI-1, 2-{6-Cyclopropyl-4-[2-methyl-4-(4-methyl-1,2,4-triazol-3-yl)pyrazol-3-yl]pyridin-2-yl}-6-(hydroxymethyl)-4-(trifluoromethyl)-3H-isoindol-1-one] | ≥ 6.70 | ≥ 6.70
Cn1cnnc1-c1cc(C#N)ccc1-c1cc(C2CC2)nc(N2Cc3cnc(CNCC4CCC4)cc3C2=O)c1 [ALF-2, 4-[2-(6-{[(Cyclobutylmethyl)amino]methyl}-1-oxo-3H-pyrrolo[3,4-c]pyridin-2-yl)-6-cyclopropylpyridin-4-yl]-3-(4-methyl-1,2,4-triazol-3-yl)benzonitrile] | ≥ 6.70 | ≥ 6.70
Cn1cnnc1-c1cc(C#N)ccc1-c1cc(C2CC2)nc(N2Cc3c(F)cc(CN[C@]4(C)COC[C@@H]4O)cc3C2=O)c1 (stereo in doubt) [AOF-9, 4-[2-Cyclopropyl-6-(4-fluoro-6-{[(4-hydroxy-3-methyloxolan-3-yl)amino]methyl}-1-oxo-3H-isoindol-2-yl)pyridin-4-yl]-3-(4-methyl-1,2,4-triazol-3-yl)benzonitrile] | > 6.70 | > 6.70
COC[C@H](C)NCc1cc(F)c2c(c1)C(=O)N(c1cc(-c3ccc(C#N)cc3-c3nncn3C)cc(C3CC3)c1)C2 [ALH-1, 3′-Cyclopropyl-5′-[4-fluoro-6-({[(2S)-1-methoxypropan-2-yl]amino}methyl)-1-oxo-3H-isoindol-2-yl]-2-(4-methyl-1,2,4-triazol-3-yl)-[1,1′-biphenyl]-4-carbonitrile] | ≥ 6.70 | ≥ 6.70
CC(NCC1CC1)c1ccc2c(c1)C(=O)N(c1cc(-c3ccc(C#N)cc3-c3nncn3C)cc(C3CC3)n1)C2 (centres unmarked) [AJI-1, 4-(2-Cyclopropyl-6-(6-(1-((cyclopropylmethyl)amino)ethyl)-1-oxoisoindolin-2-yl)pyridin-4-yl)-3-(4-methyl-4H-1,2,4-triazol-3-yl)benzonitrile] | ≥ 6.70 | ≥ 6.70
COC1(CNCc2ccc3c(c2)C(=O)N(c2cc(-c4ccc(C#N)cc4-c4nncn4C)cc(C4CC4)n2)C3)CCCC1 [AKE-2, 4-{2-Cyclopropyl-6-[6-({[(1-methoxycyclopentyl)methyl]amino}methyl)-1-oxo-3H-isoindol-2-yl]pyridin-4-yl}-3-(4-methyl-1,2,4-triazol-3-yl)benzonitrile] | ≥ 6.70 | ≥ 6.70
Cn1cnnc1-c1cc(C#N)ccc1-c1cc(C2CC2)nc(N2Cc3c(cc(CO)c(F)c3F)C2=O)c1 [ALX-9, 4-{2-Cyclopropyl-6-[4,5-difluoro-6-(hydroxymethyl)-1-oxo-3H-isoindol-2-yl]pyridin-4-yl}-3-(4-methyl-1,2,4-triazol-3-yl)benzonitrile] | ≥ 6.70 | ≥ 6.70

— US12325697B2 (Nimbus Clio, Inc., priority 2021, dated 2025)
